Assays:
[1] = test system: latent HIV in resting CD4+ T-lymphocytes; test: HIV reactivation in resting CD4+ T-lymphocytes derived from ART-treated HIV patients (HIV RNA in supernatant, qPCR); format: cell-based, human
Method: The experiments of this example analyzed the ability of DEB10-1143 at reactivating latent HIV in resting CD4+ T-lymphocytes isolated from peripheral blood monocytic cells (PBMCs) derived from HIV patients currently under ART. Drug titration and kinetic studies were conducted. Debio-1143 was tested alone or in combination with ART.
Method: Resting CD4+ T cells were isolated using the EasySep™ Human Resting CD4+ T Cell Isolation Kit, which is designed to isolate resting CD4+ T cells from fresh or previously frozen PBMCs by immunomagnetic negative selection. The EasySep™ procedure involves labeling unwanted cells with antibody complexes and magnetic particles. The magnetically labeled cells are separated from the untouched desired cells by using an EasySep™ magnet and simply pouring or pipetting the desired cells into a new tube. Isolated resting CD4+ T cells (50,000 cells/50 μL) were treated in duplicate for 0, 24, 48 and 72 h with increasing concentrations of DEB10-1143 (0 to 20.5 μM) used alone or in combination with ART (20 μM TDF, 10 μM FTC and 1 μM Raltegravir). Amounts of virions released from cells were quantified at the indicated time points by quantifying HIV RNA levels (HIV RNA copies/mL) in supernatant of cell culture using one-step reverse transcriptase quantitative real-time PCR (ABI custom TaqMan Assays-by-Design) according to the manufacturer's instructions. Primers were 5-[…]-3 and 5-[…]-3, and MGB probe 5-FAM-[…]-Q-3, where FAM is 6-carboxyfluorescein.

[2] = test system: latent HIV-1 in 2D10 cells; test: HIV-1 reactivation in latent GFP-reporter 2D10 cells, Debio 1143 and other LRAs alone or in combination; format: cell-based; conditions: single agents, 48 h
Method: We compared the efficacy of Debio-1143 at reversing HIV-1 latency with that of other LRAs. We then analyzed the cytotoxicity of Debio-1143 with that of the other LRAs on 2D10 cells. Drug titration was conducted.
Methods: HIV-1 latent GFP-reporter 2D10 cells (100,000 cells/100 μL) were treated in triplicate for 48 h with increasing concentrations of either only Debio-1143 or the LRAs (2000 nM or 20000 nM), or with Debio 1143 (2000 nM or 20000 nM) in combination with the LRAs at a single predetermined concentration (see Table 2). HIV reactivation was analyzed via GFP expression by flow cytometry.

2D10 cells = test: Cytotoxicity by LDH assay in 2D10 cells; format: cell-based; conditions: 0 to 20 μM, 48 h
Method: Drug titration was conducted.
For analysis of cell viability, cells (100,000 cells/100 μL) were treated in triplicate for 48 h with increasing concentrations of Debio-1143 or other known LRAs (0 to 20 μM). Cellular cytotoxicity was analyzed by Lactate dehydrogenase (LDH) assay. LDH is an oxidoreductase enzyme that catalyzes the interconversion of pyruvate and lactate. Cells release LDH into the bloodstream after tissue damage or red blood cell hemolysis. Since LDH is a fairly stable enzyme, it has been widely used to evaluate the presence of damage and toxicity of tissue and cells. In this particular, LDH reduces NAD to NADH, which is specifically detected by colorimetric (490 nm) assay.

BIRC2 = target: T1, BIRC2 (Homo sapiens, UniProt Q13490); test: BIRC2 (cIAP1) degradation by Western blotting; format: cell-based
T1 construct: endogenous in cells; host or cells: 2D10, 293T and CD4+ T cells
T1 sequence (Q13490 whole entry): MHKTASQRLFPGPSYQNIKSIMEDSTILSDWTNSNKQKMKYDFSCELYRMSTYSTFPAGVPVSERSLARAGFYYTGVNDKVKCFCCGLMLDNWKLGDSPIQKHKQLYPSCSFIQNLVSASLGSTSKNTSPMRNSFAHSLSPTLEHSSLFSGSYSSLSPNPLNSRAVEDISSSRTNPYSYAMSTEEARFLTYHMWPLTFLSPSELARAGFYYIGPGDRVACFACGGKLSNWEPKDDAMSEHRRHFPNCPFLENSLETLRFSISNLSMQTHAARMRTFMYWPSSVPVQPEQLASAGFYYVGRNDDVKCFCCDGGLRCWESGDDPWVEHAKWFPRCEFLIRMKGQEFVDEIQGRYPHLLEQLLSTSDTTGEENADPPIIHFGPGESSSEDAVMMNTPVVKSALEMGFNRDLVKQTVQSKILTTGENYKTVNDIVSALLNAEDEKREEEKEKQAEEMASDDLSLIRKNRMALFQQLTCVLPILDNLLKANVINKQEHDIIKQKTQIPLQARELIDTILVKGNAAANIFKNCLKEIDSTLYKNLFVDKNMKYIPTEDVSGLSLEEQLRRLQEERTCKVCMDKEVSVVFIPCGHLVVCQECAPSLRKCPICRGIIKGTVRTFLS
Method: It was investigated whether Debio-1143 reverses HIV-1 latency by acting on the NF-κB pathway. Canonical and non-canonical NF-κB signaling pathways play an important role in the reactivation of latent HIV-1, implicating its regulation as an important therapeutic strategy for latency reversal.
Method: 2D10 (A) or 293T (B) and CD4+ T cells (C) cells were treated with DMSO, Debio-1143 (1 μM) and TNFα (10 ng/ml) for the indicated times and analyzed by Western blotting for BIRC2 and IkBα protein expression using antibodies specifically detecting human BIRC2, human IkBα, or human CypA, such as commercially available (e.g. from R&D Systems, Cell Signaling, Santa Cruz Biotechnology, or other sources).

[3] = test system: HIV-infected resting CD4+ T cells (rCD4); test: Lysis of HIV-infected resting CD4+ T cells (rCD4) by CD8+ T cells and NK cells (LDH activity); format: cell-based, human; conditions: 0, 1 and 10 μM, mono- or co-cultures of rCD4, CD4+, 24 and 48 h
Method: It was investigated whether the Debio-1143-induced reversal of HIV-1 latency, by restoring HIV-1 protein production in rCD4, would permit viral peptide exposure with MHC on infected rCD4+ T cells and allow recognition and lysis by CD8+ T cells and/or NK cells.
Method: Human CD4+ T cells, CD8+ T cells and NK cells were isolated following manufacturer's instruction (beads coated with specific antibodies) from one blood donor (500 mL). Ninety percent of CD4+ T cells were infected with HIV-1 (JR-CSF) (1 μg of p24), incubated for 4 days to allow establishment of infection, and then treated with ART for 3 days. Suppression of replication was verified by p24 ELISA in supernatants. rCD4 were then isolated following manufacturer's instruction. Infected and ART-treated rCD4 were mixed with uninfected CD4+ T cells, CD8+ T cells and NK cells a 1:1 ratio (100,000 cells) for 24 and 48 in triplicate. Mono-culture of each cell populations were used as controls. DMSO or Debio-1143 (0, 1 and 10 μM) were added to mono- or co-cultures for 24 and 48 h. Cell killing was quantified by LDH activity.

Question: What does the source list for `CN[C@@H](C)C(=O)N[C@H]1CN(C(=O)CC(C)C)CC[C@H]2CC[C@@H](C(=O)NC(c3ccccc3)c3ccccc3)N2C1=O` [Debio 1143, (5S,8S,10aR)-N-benzhydryl-5-((S)-2-(methylamino)propanamido)-3-(3-methylbutanoyl)-6-oxodecahydropyrrolo[1,2-a][1,5]diazocine-8-carboxamide]?
Answer: influence of ART on the degree of latency reversal ([1]; in combination with ART (20 μM TDF, 10 μM FTC, 1 μM Raltegravir)): did not influence; time after which reactivation was already maximal ([1]; resting CD4+ T cells from two HIV patients under ART): ≤ 24 h; reactivation of latent HIV (HIV RNA copies/mL in supernatant) ([1]; resting CD4+ T cells from two HIV patients under ART, 0 to 20.5 μM, 0-72 h): possesses the capacity of reactivating latent HIV; HIV-1 latency reversal (GFP expression) [2]: reversed HIV-1 latency; potency as LRA compared with other LRAs [2]: one of the most potent LRA; cytotoxicity (LDH assay) (2D10 cells): did not exhibit any cytotoxicity; time of BIRC2 degradation (BIRC2; 1 μM, 2D10 and 293T cells): < 15 min; BIRC2 degradation (BIRC2; CD4+ T cells): dose-dependent; cell killing (LDH activity) [3]: Low cell death was observed in all mono- and co-cultures except for the rCD4:CD8+ T cells co-culture
